Data set [1] relates to reconstructed human epidermis (RHE). In words: Experimental atopic dermatitis in reconstructed human epidermis (RHE). The data set is classed as cell-based. To be noted: RHE. The protocol:
(§1) Compound 27a was evaluated in an inflammatory model of RHE by Synelvia S.A.S. (Labège, France) according to the company’s protocol.[88] In brief, primary human keratinocytes were used to generate RHE on polycarbonate filters as described.[88] RHE was allowed to acclimate for 6 days (5% CO2, 37 °C) prior to incubation with 27a (5, 10, 25 μM), dexamethasone (1 μM), or vehicle (0.05% DMSO), and a proinflammatory cytokine cocktail for 4 days at 5% CO2 and 37 °C. The culture medium including compounds and cytokines was changed on days 6, 8, and 10. Each culture condition was repeated three times. Acute cytotoxicity of 27a was excluded at the concentrations studied within 24 h by measuring the mitochondrial dehydrogenase activity (MTT assay).
Morphological changes (i.e., spongiosis and the formation of keratohyalin granules) were evaluated for sections of paraffin-embedded RHEs after hematoxylin-eosin staining.[89] The permeability of the skin barrier was estimated from the transepidermal water loss at the RHE surface.[90] The surface pH was determined with a pH electrode as reported.[89] The permeability of the stratum corneum was addressed by applying Lucifer yellow onto the RHE surface and inspecting the penetration by fluorescence microscopy.[88] TSLP and IL-8 levels were analyzed by ELISA (according to the specifications of Synelvia S.A.S.) in the culture medium on day 2 and day 4 after addition of cytokines, respectively.

The test system of data set [2] is PMNL. In words: fMLP-induced Ca2+ influx in PMNL. Format: cell-based, human. The protocol:
PMNL (1 × 10^6) were loaded with Fura-2/AM (2 nmol, Thermo Fisher Scientific) for 45 min at 37 °C. […] Intracellular Ca^2+ concentrations were measured using a NOVOstar fluorescence microplate reader (BMG Labtech, Ortenberg, Germany) at 37 °C. The emission wavelength was set to 510 nm and the excitation wavelengths to 340 nm (Ca^2+-bound Fura-2) and 380 nm (free Fura-2).[23] To define 100% Ca^2+ influx, the difference between the maximal influx (cell lysis by Triton X-100) and minimal influx (subsequent chelation of Ca^2+ by EDTA) was measured for each experiment.

The target of data set [3] is T1, ovine COX-1 (Ovis aries, UniProt P05979).
T1 construct: purchased Cayman Chemicals
T1 sequence (P05979 25-600): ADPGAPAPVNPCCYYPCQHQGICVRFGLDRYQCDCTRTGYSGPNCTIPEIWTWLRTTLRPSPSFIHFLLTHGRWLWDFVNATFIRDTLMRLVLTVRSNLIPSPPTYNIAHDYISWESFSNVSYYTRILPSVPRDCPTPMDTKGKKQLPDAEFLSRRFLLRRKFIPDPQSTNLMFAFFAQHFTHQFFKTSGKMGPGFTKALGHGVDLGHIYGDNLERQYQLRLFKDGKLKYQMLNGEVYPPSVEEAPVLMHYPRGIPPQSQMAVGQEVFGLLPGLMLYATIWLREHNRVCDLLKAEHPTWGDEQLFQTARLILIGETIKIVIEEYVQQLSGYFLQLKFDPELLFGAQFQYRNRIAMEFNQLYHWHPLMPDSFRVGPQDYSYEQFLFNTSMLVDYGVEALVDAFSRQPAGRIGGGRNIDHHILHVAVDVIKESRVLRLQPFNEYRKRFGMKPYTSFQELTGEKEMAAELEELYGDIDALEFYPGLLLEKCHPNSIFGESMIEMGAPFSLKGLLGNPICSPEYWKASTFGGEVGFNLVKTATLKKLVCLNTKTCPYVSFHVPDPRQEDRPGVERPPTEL
In words: Isolated COX-1 activity. The data set is classed as biochemical. The protocol:
Purified ovine COX-1 (Cayman Chemicals; 50 units) or human recombinant COX-2 (Cayman Chemicals; 20 units) was dissolved in 100 mM Tris buffer pH 8, 5 mM glutathione, 5 μM hemoglobin, and 100 μM EDTA. COX isoenzymes were preincubated with the vehicle (DMSO) or 27a for 5 min at 4 °C and 1 min at 37 °C. Addition of arachidonic acid (COX-1: 5 μM; COX-2: 2 μM) initiated the formation of COX-derived 12(S)-hydroxy-5-cis-8,10-trans-heptadecatrienoic acid (12-HHT), which was extracted and analyzed by RP-HPLC according to 5-LOX products.

Data set [4] relates to human keratinocytes. In words: Keratinocyte cytotoxicity (MTT) in the RHE model. Format: cell-based. To be noted: MTT assay. The protocol:
as §1
(Tetrazolium dyes change colour on reduction, which living cells bring about.)

The test system of data set [5] is zymosan-induced murine peritonitis. In words: Zymosan-induced peritonitis in mice. The data set is classed as in vivo. The protocol: (§2) Male CD-1 mice (33–39 g, 6–8 weeks, Charles River Laboratories; Calco, Italy) and female BALB/c mice (20 g, 8 weeks, Charles River Laboratories) were fed with standard rodent chow and water and acclimated for 4 days at a 12 h light and 12 h dark schedule in a constant air-conditioned environment (21 ± 2 °C). Mice were randomly assigned to groups, and experiments were carried out during the light phase.
Zymosan (2 mg/mL in saline, i.p., 0.5 mL, Sigma-Aldrich) was injected at 30 min (i.p.) or 60 min (p.o.) post compound administration. Mice were sacrificed by inhalation of CO2 after another 30 min to determine LTC4 levels, lipid mediator profiles, metabolites, and vascular permeability and after 4 h to analyze LTB4 levels and cell infiltration.[72] Plasma and peritoneal exudates were collected, and cells were counted in exudates after trypan blue staining. Vascular permeability was measured by injection of Evans blue dye (40 mg/kg in saline, 0.3 mL, Sigma-Aldrich) into the tail vain directly before peritonitis induction.[72] The exudate was centrifuged (3000g, 5 min), and the absorbance was measured at 610 nm (DU730 spectrophotometer, Beckman Coulter, Krefeld, Germany). Levels of LTB4 and cysteinyl-LTs (dominated by LTC4) were quantified in the exudate by ELISA (Enzo Life Sciences, Lörrach, Germany) according to the manufacturer’s instructions. Compound 27a, its metabolites, and lipid mediators were extracted and analyzed by UPLC-MS/MS.

In data set [6] the target is single mutant Arg101Asp 5-LOX (R101D) (Homo sapiens, UniProt P09917, R102D). In words: Cell-free activity of 5-LOX single mutant (R101D).
single mutant Arg101Asp 5-LOX (R101D), sequence (P09917 whole entry R102D): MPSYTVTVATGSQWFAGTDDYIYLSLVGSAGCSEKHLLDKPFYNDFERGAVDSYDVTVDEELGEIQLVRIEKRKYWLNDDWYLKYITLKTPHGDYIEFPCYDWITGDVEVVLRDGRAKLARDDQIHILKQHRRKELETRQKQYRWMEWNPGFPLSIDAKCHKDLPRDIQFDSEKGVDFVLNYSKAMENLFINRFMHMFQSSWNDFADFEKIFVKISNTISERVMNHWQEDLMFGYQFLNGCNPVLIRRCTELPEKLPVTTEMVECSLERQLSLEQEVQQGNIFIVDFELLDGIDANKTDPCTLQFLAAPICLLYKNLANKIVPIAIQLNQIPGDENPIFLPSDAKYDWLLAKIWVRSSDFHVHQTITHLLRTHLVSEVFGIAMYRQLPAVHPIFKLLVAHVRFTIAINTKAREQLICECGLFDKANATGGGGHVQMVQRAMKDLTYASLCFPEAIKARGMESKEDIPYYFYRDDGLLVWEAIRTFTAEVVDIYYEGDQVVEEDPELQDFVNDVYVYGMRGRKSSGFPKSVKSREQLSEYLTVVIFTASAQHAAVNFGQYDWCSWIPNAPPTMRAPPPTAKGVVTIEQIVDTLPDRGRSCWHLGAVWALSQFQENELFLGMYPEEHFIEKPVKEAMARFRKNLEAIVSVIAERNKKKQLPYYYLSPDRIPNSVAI
Experimental: (§3) Human recombinant 5-LOX was expressed in E. coli Bl21 (DE3) cells that were transformed with pT3–5LOX (wt 5-LOX), 5-LOX_3W (triple mutation of Trp102Ala/Trp13Ala/Trp75Ala), or 5-LOX_R (single mutant of the Arg101Asp plasmid) and purified on an ATP-agarose column (Econo-Pac, Bio-Rad, Hercules, CA) by affinity chromatography.[6],[75]
(§4) Purified 5-LOX (0.5 μg in PBS pH 7.4 containing 1 mM EDTA and 1 mM ATP) was preincubated with the vehicle (DMSO) or test compounds for 10 min and prewarmed at 37 °C.
For data set [7], the target named is triple mutant Trp13Ala, Trp75Ala, and Trp102Ala 5-LOX (3W) (Homo sapiens, UniProt P09917, W103A/W14A/W76A). Briefly: Cell-free activity of 5-LOX triple mutant (3W).
triple mutant Trp13Ala, Trp75Ala, and Trp102Ala 5-LOX (3W), sequence (P09917 whole entry W14A/W76A/W103A): as the sequence (P09917 whole entry R102D) above, with W14A, W76A, D102R, W103A counted along it
Experimental: as §3, §4
Data set [8] relates to mice sensitized to ovalbumin. In words: Experimental model of murine asthma (ovalbumin sensitization). Format: in vivo. The note with it: 10 mg/kg p.o. The protocol:
as §2
BALB/c mice received 27a (p.o.) or vehicle (0.5% carboxymethylcellulose in 10% Tween 20; 0.5 mL) on days 0 and 7, 1 h (p.o) before being sensitized to ovalbumin (100 μg adsorbed to 3.3 mg of aluminum hydroxide gel, s.c., Sigma-Aldrich). Mice were sacrificed on days 1, 3, 8, 10, or 21 to collect lung and plasma. Bronchi were cut in rings of 1 to 2 mm length, placed in organ baths, and fixed to an isometric force transducer 7006 connected to a Powerlab 800 (AD Instruments, Ugo Basile, Comerio, Italy). After stretching the rings to a resting tension of 0.5g and equilibration for at least 30 min, the rings were challenged with carbachol (1 μM) until a reproducible response was observed. To assess bronchial reactivity, the cumulative response to carbachol (0.001 to 3.16 μM) was measured. Bronchial relaxation was determined from the cumulative response of precontracted bronchial tissues to salbutamol. Compound 27a, LTB4, and LTB4 isomers were analyzed in plasma and lung homogenates by UPLC-MS/MS. Lung tissue (100 mg/mL) was homogenized in PBS pH 7.4 at 4 °C for 1–2 min using an Omni tissue homogenizer (Omni, Kennesaw, GA).

The mark [9] stands for this setting: 10 mg/kg i.p., 30 min post zymosan.
[10] abbreviates: 10 mg/kg i.p., 4 h post zymosan.

Each structure is given as a SMILES string.

`C/C(=C\CC/C(C)=C/CC[C@]1(C)CCc2c(C)c(O)c(C)c(C)c2O1)CCC=C(CO)CO` [Compound 27a, α-amplexichromanol]: the TSLP expression entry in data set [1] (cytokine cocktail 2 days) is “did not influence TSLP expression”. Also, in data set [1] (cytokine cocktail 4 days), the “Epidermal disorganization induced by cytokine treatment” value was “attenuated the epidermal disorganization”; the IL-8 levels entry is listed as “reduced IL-8 levels”; the “Skin barrier functions (TEWL, Lucifer yellow)” value is “substantially improved skin barrier functions”; the “pH at the RHE surface” value is “decreased even below the basal level”. Moreover, the “Ca2+ influx” value in data set [2] (10 μM) was “substantially reduced”. Further, the “Intracellular levels of Ca2+” value in data set [2] (submicromolar concentrations (≤1 μM)) was “nor influenced intracellular levels of Ca^2+”. Also, the “COX-1 inhibition (isolated ovine enzyme)” value in data set [3] is recorded as “not substantially inhibited”. Also, the “Cytotoxic effects on human keratinocytes” value in data set [4] is on record as “excluded”. Besides, the “Cysteinyl-LTs in the exudate” value in data set [5] (3 mg/kg p.o., 30 min post zymosan) was “decreased to a basal level”. Moreover, in data set [5] (setting [9]), the “LTC4 levels in the exudate” value is “strongly decreased LTC4 levels in the exudate” and the Vascular permeability entry is given as “reduced vascular permeability”. In data set [5] (setting [10]), the “Influx of cells into the peritoneal cavity” value is listed as “accordingly reduced” and the “LTB4 levels in the exudate” value is listed as “substantially lowered LTB4 levels”. In addition, the “Resolvin E3 levels in the exudate” value in data set [5] (10 mg/kg p.o., 30 min post zymosan injection, individual mice) is listed as “moderately increased”. Further, in data set [6], the “Effect of Arg101Asp replacement on 5-LOX inhibition” value was “failed to affect 5-LOX inhibition”. Further, the “Effect of Trp102Ala/Trp13Ala/Trp75Ala triple mutation on 5-LOX inhibition” value in data set [7] is given as “failed to affect 5-LOX inhibition”. Moreover, the “Lung levels of LTB4 and its isomers” value in data set [8] (day 3) is “lowered lung levels of LTB4 and its isomers”. For the same molecule, in data set [8] (day 21), the “Adrenergic bronchial relaxation induced by salbutamol” value is given as “fully restored the adrenergic bronchial relaxation induced by salbutamol” and the “Ovalbumin-induced bronchial hyperreactivity to carbachol” value is recorded as “blocked ovalbumin-induced bronchial hyperreactivity to carbachol”.

The values are drawn from publication PMC8365602 (Journal of Medicinal Chemistry, 2021).
